Data set [1] in a line: Toxicokinetic evaluation (plasma) after subcutaneous injection in cynomolgus monkeys. The data set is classed as in vivo. Here is the method:
(§1) Dose levels were 30, 60, and 120 mg/kg/dose for Groups 2, 3, and 4, respectively. […] The dose volumes were 1.2, 0.3, 0.6, and 1.2 mL/kg spread evenly over 4, 1, 2, and 4 dose sites for Groups 1-4, respectively, on each day of dosing. The control and 120 mg/kg/dose groups each consisted of 5 males and 5 females, and the 30 and 60 mg/kg/dose groups each consisted of 3 males and 3 females.
The animals were observed twice daily for mortality and moribundity. Clinical examinations were performed once daily for at least 6 consecutive days, including the day of randomization, prior to randomization, prior to dosing, 1-2 hours postdosing, once daily on nondosing days, and once daily during the recovery period. Detailed physical examinations were performed at least weekly during the acclimation period until randomization, on the day of randomization, weekly (±2 days) during the study period, and on the day of the scheduled necropsies. Injection site (IS) observations were performed prior to dosing (dose sites that were utilized on that day of dosing), 1-2 hours postdosing (dose sites that were utilized on that day of dosing), once daily on nondosing days (dose sites that had been previously been utilized), and twice weekly during the recovery period. Individual body weights were recorded weekly (±2 days). Individual body weights were collected at least weekly during the acclimation period until randomization, on the day of randomization, Study Day 0 (prior to dosing), weekly (2±days) during the study period, on the day prior to the day of the scheduled necropsies (nonfasted) and on the day of the scheduled necropsies (fasted). Clinical pathology parameters (hematology, coagulation, serum chemistry, and urinalysis) were analyzed during acclimation prior to randomization (Study Day −15), and on the day of the primary (Study Day 17) and recovery (Study Day 45) necropsies. Blood samples for toxicokinetic evaluation were collected from all animals/sex/group/time point prior to dose administration and at approximately 1, 2, 4, 8, 24, 48, and 72 hours after dose administration on Study Days 0 and 12. Complete necropsies were performed on all animals, and selected organs were weighed at the scheduled necropsies. Selected tissues were examined microscopically from all animals. Fingernail, toenail, nail bed, and abdominal skin samples were collected from all animals at the scheduled necropsies for bioanalytical analysis.

Data set [2] in a line: Mortality, clinical observations and body weights after subcutaneous injection in cynomolgus monkeys. The data set is classed as in vivo. The following applies: 30, 60, 120 mg/kg/dose SC once every 3 days (5 doses). Here is the method: as §1
The animals were observed twice daily for mortality and moribundity. Clinical examinations were performed once daily for at least 6 consecutive days, including the day of randomization, prior to randomization, prior to dosing, 1-2 hours postdosing, once daily on nondosing days, and once daily during the recovery period. Detailed physical examinations were performed at least weekly during the acclimation period until randomization, on the day of randomization, weekly (±2 days) during the study period, and on the day of the scheduled necropsies. […] Individual body weights were recorded weekly (±2 days). […] Clinical pathology parameters (hematology, coagulation, serum chemistry, and urinalysis) were analyzed during acclimation prior to randomization (Study Day −15), and on the day of the primary (Study Day 17) and recovery (Study Day 45) necropsies. […]

Starred links: 1 amine or outer side, 2 acyl side, 3 side chain; linkers in the order of their positions; H or OH if unused. Positions of bridges follow the written chain, without caps; N, C: chain ends. Non-standard residues stand in square brackets, D forms with d. Residues, ends and D or L forms follow the SMILES beside them. *: point of attachment. Orn(4R-OH,5R-OCH2CH2NMe3+) = C[N+](C)(C)CCO[C@@H](N[*:3])[C@H](O)C[C@H](N[*:1])C(=O)[*:2]; pTerphenylCO(4''-OnC5H11) = CCCCCOc1ccc(-c2ccc(-c3ccc(C(=O)*)cc3)cc2)cc1; hTyr(3S-OH,4S-OH) = N[C@H](C(=O)O)[C@H](O)[C@@H](O)c1ccc(O)cc1; Pro(3S-OH,4S-Me) = C[C@H]1CN[C@H](C(=O)O)[C@H]1O; Hyp = O=C(O)[C@@H]1C[C@@H](O)CN1

In general, Cmax refers to the maximum level reached in the sampled fluid or tissue.

Turning to `CCCCCOc1ccc(-c2ccc(-c3ccc(C(=O)N[C@H]4C[C@@H](O)[C@@H](OCC[N+](C)(C)C)NC(=O)[C@@H]5[C@@H](O)[C@@H](C)CN5C(=O)[C@H]([C@@H](C)O)NC(=O)[C@H]([C@H](O)[C@@H](O)c5ccc(O)cc5)NC(=O)[C@@H]5C[C@@H](O)CN5C(=O)[C@H]([C@@H](C)O)NC4=O)cc3)cc2)cc1` [CD101] ({pTerphenylCO(4''-OnC5H11)}-[Orn(4R-OH,5R-OCH2CH2NMe3+)]T[Hyp][hTyr(3S-OH,4S-OH)]T[Pro(3S-OH,4S-Me)]; lactam 1-C), the “combined accumulation ratio (plasma)” value in data set [1] (30 mg/kg/dose SC once every 3 days, males and females combined) amounted to 3.18; in data set [1] (60 mg/kg/dose SC once every 3 days, males and females combined) it was 2.70; in data set [1] (120 mg/kg/dose SC once every 3 days, males and females combined), 2.67. In addition, the “time by which concentrations reached maximum or near maximum observed values” in data set [1] (Study Day 0, postdose, SC) was not above 8 h. In addition, the “increase of combined exposure (AUC0-72 and Cmax) over a 4-fold dose change” value in data set [1] (Study Day 12, 30 to 120 mg/kg/dose SC) is “approximately 3 fold”. In addition, the “predose concentration on Study Day 12 relative to Study Day 0 Cmax” value in data set [1] (Study Day 12 predose, SC once every 3 days) is recorded as “approximately 2 fold”. Also, the highest concentration (Cmax) in data set [1] (both sexes, cynomolgus monkey, plasma, range across the 30 to 120 mg/kg groups, males and females combined, SC) fell in the range of 21 to 65.1 µg/mL. In addition, the AUC(0-t) in data set [1] (both sexes, cynomolgus monkey, plasma, range across the 30 to 120 mg/kg groups, males and females combined, SC, read-out: AUC0-72) was in the range of 1360 to 4320 µg·h/mL. Also, the survival result in data set [2] is given as “All animals survived to the scheduled necropsies”. Also, the “test article-related clinical observations and effects on body weights” value in data set [2] is reported as “no test article-related clinical observations or effects on body weights”.
